According to US20120027822A1, “Process for Producing Rapidly Disintegrating Spheroids (Pellets), Granules and/or Mixtures Thereof” (SPECIFAR S.A., priority 2009, published 2012):

Experiment: Polymorph study by X-Ray Powder Diffraction (XRPD)
Assay type: physicochemical
Details: XRPD of powder from spheroids of example 7a versus dihydrate and trihydrate patterns
Experimental: All the formulations described in examples 7a-7h released the API quantitatively in 15 minutes. In addition, a polymorph study was performed and the crystal phase of Esomeprazole Mg powder deriving from the spheroids of example 7a was established through the application of the X-Ray Powder Diffraction (XRPD) technique. The recorded XRD patterns shown in FIG. 2 were compared against the respective patterns of the dihydrate and trihydrate forms provided by the manufacturer. […] None of the characteristic trihydrate reflections, marked with arrows in FIG. 2, could be observed.

Row | crystal habit after the aqueous pelletization process | Compound
1 | without deteriorating the crystal habit | COc1ccc2[n-]c([S@@+]([O-])Cc3ncc(C)c(OC)c3C)nc2c1.COc1ccc2[n-]c([S@@+]([O-])Cc3ncc(C)c(OC)c3C)nc2c1.O.O.[Mg+2] [Esomeprazole Magnesium Dihydrate]

Experiment: not given
Details: water; cited from earlier work

Row | Compound | aqueous solubility class (US Pharmacopoeia terms)
2 | COc1ccc2nc([S@@+]([O-])Cc3ncc(C)c(OC)c3C)[nH]c2c1 [Esomeprazole] | slightly soluble or insoluble
3 | COc1ccnc(C[S+]([O-])c2nc3ccc(OC(F)F)cc3[nH]2)c1OC (stereo not shown) [Pantoprazole] | freely soluble
4 | COCCCOc1ccnc(C[S+]([O-])c2nc3ccccc3[nH]2)c1C (stereo not shown) [Rabeprazole] | very soluble
5 | COc1ccc2[nH]c([S+]([O-])Cc3ncc(C)c(OC)c3C)nc2c1 (stereo not shown) [Omeprazole] | very slightly soluble
6 | Cc1c(OCC(F)(F)F)ccnc1C[S+]([O-])c1nc2ccccc2[nH]1 (stereo not shown) [Lansoprazole] | practically insoluble
7 | CCC1=C(C)CN(C(=O)NCCc2ccc(S(=O)(=O)NC(=O)N[C@H]3CC[C@H](C)CC3)cc2)C1=O [Glimepiride] | practically insoluble
